Reference: patent US20220071955A1, “Methods of Treatment, Prevention and Diagnosis” (The Walter and Eliza Hall Institute of Medical Research, priority 2018, published 2022)
“Also recorded” adds a separate entry of the source.

Columns and labels:
[1] = system: ALS patient iPSC-derived motor neurons; assay: LDH cytotoxicity assay and brightfield imaging of iPSC-derived motor neurons; type: cell-based, human; conditions: H-151 1 μM, 4-week treatment
Excerpt: (§1) The established human iPSC lines used in this study included two controls (NCRM-1 and NCRM-5) from the National Institute of Neurological Disorders and Stroke, one control and one ALS patient from Alessandro Rosa, one ALS patient from RIKEN and one ALS patient (TALSTDP-47.10) from the Target ALS Foundation. All iPSCs were maintained on Matrigel (Corning, 354277)-coated 6-well plates in mTeSR1 (STEMCell Technologies, 85850) containing 1× Primocin (Invivogen, ant-pm-1) and passaged 1:6 using ReLeSR (STEMCell Technologies, 05872) with ROCK inhibitor Y-27632 (STEMCell Technologies, 72304) for the first 24 hours. The medium was replaced daily. Cells were cyropreserved in mTeSR1/10% DMSO.
(§2) Differentiation of iPSCs into ChAT^+ motor neurons was performed as described previously (Du et al., 2015) All medium and reagents from Gibco unless otherwise stated.
Human iPSCs were cultured in a chemically defined Neural Medium: DMEM/F12:Neurobasal (1:1) supplemented with 0.5×N2, 0.5×B27, 0.1 mM L-ascorbic acid (Sigma), 1× Glutamax and 1× Primocin (Invivogen) containing 3 μM CHIR99021 (STEMCell Technologies, 72054), 2 μM Dorsomorphin (STEMCell Technologies, 72102) and 2 μM SB431542 (STEMCell Technologies, 72234) for 6 days, and the medium was changed every other day. […]

[2] = system: TDP-43 overexpressing Thp1 cells; assay: IFNB1 and TNF induction (qPCR) in TDP-43 overexpressing Thp1 cells; type: cell-based, human; conditions: Thp1 cells overexpressing TDP-43 (WT or Q331K)
Procedure: (§3) Immortalised mouse embryonic fibroblasts (MEFs) lacking MAVS, PKR, cGAS, STING, Bax/Bak, Mcl1 or WT control were maintained in DME/KELSO medium (in-house DMEM containing 40 mM sodium bicarbonate, 1 mM HEPES, 0.0135 mM folic acid, 0.24 mM L-asparagine, 0.55 mM L-arginine, 1×Pen/Strep and 22.2 mM D-glucose) supplemented with 10% FBS (Sigma-Aldrich). Transfection of MEFs was performed using FuGENE HD (Promega). AGK−/− (gift from D. Stojanovski) and WT HEK293T cells were maintained in DMEM supplemented with 10% FBS, 100 U/mL Penicillin and 100 μg/mL Streptomycin. Lipofectamine 2000 (Life Technologies) was used to transfect HEK293T cells according to manufacturers' instructions. Human monocytic THP-1 cells were grown in RPMI-1640 with 10% FBS, 100 U/mL Penicillin and 100 μg/mL Streptomycin. The above cell culture was conducted at 37° C. in a humidified atmosphere with 10% CO2. […] The depletion was analysed using real-time qPCR to measure expression of mitochondrial DNA genes and nuclear genes (see Quantitative real-time PCR below).
(§4) Total RNA was isolated using the ISOLATE II RNA Mini Kit (Bioline) as per manufacturers' instructions and reverse transcribed using oligo(dT) nucleotides. Primers for cytokines, mitochondrial DNA and housekeeping genes were used as described previously (White et al., 2014; De Nardo et al., 2014). Others were designed using the Integrated DNA Technologies online tool as follows: hsIFNB1 FW, 5′-TGTCGCCTACTACCTGTTGTGC-3′ (SEQ ID NO:17); hsIFNB1 RV, 5′-AACTGCAACCTTTCGAAGCC-3′ (SEQ ID NO:18); mmIfnb1 FW: 5′-CCAGCTCCAAGAAAGGACGA-3′ (SEQ ID NO:19); mmIfnb1 RV: 5′-TGGATGGCAAAGGCAGTGTA-3′ (SEQ ID NO:20); mmIfna6 FW: 5′-GCTTTCCTGATGGTTTTGGTG-3′ (SEQ ID NO:21); mmIfna6 RV: 5′-AGGCTTTCTTGTTCCTGAGG-3′ (SEQ ID NO:22). Quantitative real-time PCR was performed using SYBR Green/ROX qPCR Master Mix (Thermo Scientific) on a ViiA 7 Real-Time PCR system (Thermo Scientific).
Cytokine expression from qPCR is represented as gene expression relative to Hprt expression as δCt method. Where indicated, relative gene expression in TDP-43 WT or mutant overexpressing cells was further normalised to expression in vector control transfected/overexpressed cells of the same genotype in the same experiment and represented as fold change. Data are typically mean±s.e.m and analysed by t-test between two groups or one- or two-way ANOVA followed by a Sidak or Dunnett multiple comparison test as appropriate. GraphPad Prism 7 was used for all charts and statistical analyses. A P values <0.05 was considered as significant.
Finally, to determine if pharmacological blockade of the cGAS-STING pathway is feasible, recently described inhibitors of cGAS (RU.521, described in Vincent et al., 2017) and STING (H-151 described in Haag et al) were tested. […]

[3] = system: human iPSC-derived motor neurons; assay: IFNB1 and TNF gene induction (qPCR) in human iPSC-derived motor neurons; type: cell-based; conditions: motor neurons from healthy controls and ALS patients with TDP-43 mutations
Excerpt: as §4, §1, §2
Human iPSCs were cultured in a chemically defined Neural Medium: DMEM/F12:Neurobasal (1:1) supplemented with 0.5×N2, 0.5×B27, 0.1 mM L-ascorbic acid (Sigma), 1× Glutamax and 1× Primocin (Invivogen) containing 3 μM CHIR99021 (STEMCell Technologies, 72054), 2 μM Dorsomorphin (STEMCell Technologies, 72102) and 2 μM SB431542 (STEMCell Technologies, 72234) for 6 days, and the medium was changed every other day.
The NEPs were dissociated with ReLeSR and cultured 1:6 on Matrigel-coated plates in the Neural Medium containing 1 μM CHIR99021, 2 μM Dorsomorphin and 2 μM SB431542 for 6 days. Y-27632 was used for the first 24 hours. The medium was changed every other day. At this stage of differentiation, MNPs were either expanded in the Neural Medium containing 3 μM CHIR99021, 2 μM Dorsomorphin, 2 μM SB431542, 0.1 μM all-trans retinoic acid (Sigma, R2500), 0.5 μM Purmorphamine (STEMCell Technologies, 72204) and 0.5 mM Valporic Acid (STEMCell Technologies, 72292) prior to MN diffrenertiation or cryopreserved in DMEM/F12 containing 10% FBS and 10% DMSO.
The MNPs were dissociated with ReLeSR and cultured on Matrigel-coated plates in the Neural Medium containing 0.5 μM all-trans RA and 0.1 μM Pur for 6 days into premature MNX1^+ MN. Y-27632 was used for the first 24 hours and the medium was replaced every other day. Subsequently, cells were detached with Accutase (Merck Millipore, SCR005) to generate single cell suspension and matured in the medium supplemented with 0.1 μM Compound E (STEMCell Technologies, 73954) for 10 days into ChAT^+ MNs. The medium was replaced every other day. Cells were plated in Matrigel-coated 8-well chamber slides (iBidi, 80826) to confirm cellular markers of MNs, including MNX1 (Merck Millipore, ABN174) and ChAT (Merck Millipore, […]) along with βIII-Tubulin (Promega, clone 5G8, G7121) staining using an inverted SP8 confocal microscopy (Leica).

TDP-43 mutant mice = assay: Rotarod test in TDP-43 mutant mice with established disease; type: in vivo, mouse; conditions: H-151 (3.75 mM) i.p. every the other day for 4 weeks from 120 days of age
293T cells = assay: Ifnb1 gene expression induced by TDP-43 (qPCR); type: cell-based; conditions: CsA 25 μM
Procedure: as §3
Total RNA was isolated using the ISOLATE II RNA Mini Kit (Bioline) as per manufacturers' instructions and reverse transcribed using oligo(dT) nucleotides. […] Quantitative real-time PCR was performed using SYBR Green/ROX qPCR Master Mix (Thermo Scientific) on a ViiA 7 Real-Time PCR system (Thermo Scientific).

MEFs = assay: Super-resolution confocal microscopy of TDP-43-mediated DNA relocation from mitochondria into the cytoplasm; type: cell-based, mouse; conditions: CsA 25 μM
Procedure: MEF cell lines expressing doxycycline-induced Flagged TDP-43 were seeded onto glass coverslips (18 mm×18 mm, thickness 1½, Zeiss) for indicated times and prepared for imaging as previously described (McArthur et al., 2018). In brief, cells were fixed, blocked and incubated overnight at 4° C. with primary antibodies as follows: anti-Flag (In-house, 9H1), anti-DNA (ProGen, AC-30-10) and anti-TOM20 (Santa Cruz Biotech, sc-11415) in blocking buffer. Following two washes in PBS and an one-hour incubation with secondary antibodies [goat anti-rabbit AF647 (A21245), goat anti-mouse AF488 (A11001 and goat anti-rat AF568, A11077) from Life Technologies], coverslips were mounted onto the microscopy slide using Prolong Diamond Antifade Mountant (ThermoFisher Scientific). Three color imaging was performed on the OMX-SR system (GE Healthcare) using a 60 Å˜1.42 NA oil immersion lens (Olympus).

| Molecule | IFNB1 induction [2] | TNF induction [2] | IFNB1 gene induction ([3]; ROS inhibitors 0.1-1 μM) | TNF gene induction ([3]; ROS inhibitors 0.1-1 μM) | further results |
| --- | --- | --- | --- | --- | --- |
| CCc1ccc(NC(=O)Nc2c[nH]c3ccccc23)cc1 [H-151] | prevent | prevent |  |  | ALS-associated cytotoxicity (LDH, imaging) [1]: mitigates ALS-associated cytotoxicity; IFNB1 gene induction ([3]; H-151 1 μM): prevent; TNF gene induction ([3]; H-151 1 μM): prevent; latency to fall in a rotarod test (TDP-43 mutant mice): significantly improved |
| COC1=C(OC)C(=O)C(CCCCCCCCCC[P+](c2ccccc2)(c2ccccc2)c2ccccc2)=C(C)C1=O [MitoQ] |  |  | prevent | prevent |  |
| CC1(C)CC(NC(=O)C[P+](c2ccccc2)(c2ccccc2)c2ccccc2)CC(C)(C)N1[O] [MitoTEMPO] |  |  | prevent | prevent |  |
| Cc1nn(-c2nc3ccc(Cl)c(Cl)c3[nH]2)c(O)c1C1OC(=O)c2ccccc21 (stereo not shown) [RU.521] | prevent | prevent |  |  | IFNB1 gene induction ([3]; RU.521 10 μM): prevent; TNF gene induction ([3]; RU.521 10 μM): prevent |
| cyclosporin A [CsA] |  |  |  |  | Ifnb1 gene expression induced by TDP-43 (293T cells): prevents; TDP-43-mediated DNA relocation from mitochondria into the cytoplasm (MEFs): prevented mtDNA leakage into the cytoplasm; also recorded: significantly reduced |
